# Patent publication US10106542B2, “Substituted 6,7-dihydropyrazolo[1,5-a]pyrazines as negative allosteric modulators of mGluR2 receptors” (Janssen Pharmaceutica NV, priority 2013, dated 2018)
# Target: T1, human mGlu2 receptor (Homo sapiens, UniProt Q14416)
# T1 construct: expressed in transfected cells; host or cells: CHO cells (membrane preparation)
# Assay: [35S]GTPγS binding assay (mGluR2 negative allosteric modulation)
# Assay type: biochemical
# Conditions: for IC50: read-out: GTPγS - hmGluR2 anGT pIC50 (converted); for Emax: read-out: GTPγS - hmGluR2 anGT Emax
# Protocol: 1) [^35S]GTPγS binding assay
# The [^35S]GTPγS binding assay is a functional membrane-based assay used to study G-protein coupled receptor (GPCR) function whereby incorporation of a non-hydrolysable form of GTP, [^35S]GTPγS (guanosine 5′-triphosphate, labelled with […] ^35S), is measured. The G-protein a subunit catalyzes the exchange of guanosine 5′-diphosphate (GDP) by guanosine triphosphate (GTP) and on activation of the GPCR by an agonist, [^35S]GTPγS, becomes incorporated and cannot be cleaved to continue the exchange cycle (Harper (1998) Current Protocols in Pharmacology 2.6.1-10, John Wiley & Sons, Inc.). […] Here we describe the use of the [^35S]GTPγS binding assay using membranes from cells transfected with the human mGlu2 receptor and adapted from Schaffhauser et al. (Molecular Pharmacology, 2003, […]) for the detection of the negative allosteric modulation (NAM) properties of the compounds of this invention.
# CHO-cells were cultured to pre-confluence and stimulated with 5 mM butyrate for 24 h. Cells were then collected by scraping in PBS and cell suspension was centrifuged (10 min at 4000 RPM in benchtop centrifuge). Supernatant was discarded and pellet gently resuspended in 50 mM Tris-HCl, pH 7.4 by mixing with an Ultra Turrax homogenizer. The suspension was centrifuged at 12,400 RPM (Sorvall F14S-6x250Y) for 10 minutes and the supernatant discarded. The pellet was homogenized in 5 mM Tris-HCl, pH 7.4 using an Ultra Turrax homogenizer and centrifuged again (13,000 RPM, 20 min, 4° C.). The final pellet was resuspended in 50 mM Tris-HCl, pH 7.4 and stored at −80° C. in appropriate aliquots before use. Protein concentration was determined by the Bradford method (Bio-Rad, USA) with bovine serum albumin as standard.
# Measurement of mGluR2 negative allosteric modulatory activity of test compounds was performed as follows. Test compounds and glutamate were diluted in assay buffer containing 10 mM HEPES acid, 10 mM HEPES salt, pH 7.4, 100 mM NaCl, 3 mM MgCl2 and 10 μM GDP. Human mGlu2 receptor-containing membranes were thawed on ice and diluted in assay buffer supplemented with 18 μg/ml saponin. […] After addition of [^35S]GTPγS (f.c. 0.1 nM), assay mixtures were shaken briefly and further incubated to allow [^35S]GTPγS incorporation on activation (30 minutes, 30° C.). Final assay mixtures contained 7 μg of membrane protein in 10 mM HEPES acid, 10 mM HEPES salt, pH 7.4, 100 mM NaCl, 3 mM MgCl2, 10 μM GDP and 10 μg/ml saponin. Total reaction volume was 200 μl. Reactions were terminated by rapid filtration through Unifilter-96 GF/B plates (Perkin Elmer, Massachusetts, USA) using a 96-well filtermate universal harvester. Filters were washed 6 times with ice-cold 10 mM NaH2PO4/10 mM Na2HPO4, pH 7.4. Filters were then air-dried, and 30 μl of liquid scintillation cocktail (Microscint-O) was added to each well. Membrane-bound radioactivity was counted in a Topcount.
# The concentration-response curves of representative compounds of the present invention were generated using the Lexis software interface (developed at J&J). Data were calculated as % of the control glutamate response, defined as the response that is generated upon addition of an EC80-equivalent concentration of glutamate.
# [1] = membranes from CHO cells transfected with human mGlu2 receptor, glutamate 60 μM, pIC50 = −log IC50 (M)
# [2] = relative maximal effect: maximal % inhibition relative to the control glutamate response
# T1 sequence (Q14416 19-872): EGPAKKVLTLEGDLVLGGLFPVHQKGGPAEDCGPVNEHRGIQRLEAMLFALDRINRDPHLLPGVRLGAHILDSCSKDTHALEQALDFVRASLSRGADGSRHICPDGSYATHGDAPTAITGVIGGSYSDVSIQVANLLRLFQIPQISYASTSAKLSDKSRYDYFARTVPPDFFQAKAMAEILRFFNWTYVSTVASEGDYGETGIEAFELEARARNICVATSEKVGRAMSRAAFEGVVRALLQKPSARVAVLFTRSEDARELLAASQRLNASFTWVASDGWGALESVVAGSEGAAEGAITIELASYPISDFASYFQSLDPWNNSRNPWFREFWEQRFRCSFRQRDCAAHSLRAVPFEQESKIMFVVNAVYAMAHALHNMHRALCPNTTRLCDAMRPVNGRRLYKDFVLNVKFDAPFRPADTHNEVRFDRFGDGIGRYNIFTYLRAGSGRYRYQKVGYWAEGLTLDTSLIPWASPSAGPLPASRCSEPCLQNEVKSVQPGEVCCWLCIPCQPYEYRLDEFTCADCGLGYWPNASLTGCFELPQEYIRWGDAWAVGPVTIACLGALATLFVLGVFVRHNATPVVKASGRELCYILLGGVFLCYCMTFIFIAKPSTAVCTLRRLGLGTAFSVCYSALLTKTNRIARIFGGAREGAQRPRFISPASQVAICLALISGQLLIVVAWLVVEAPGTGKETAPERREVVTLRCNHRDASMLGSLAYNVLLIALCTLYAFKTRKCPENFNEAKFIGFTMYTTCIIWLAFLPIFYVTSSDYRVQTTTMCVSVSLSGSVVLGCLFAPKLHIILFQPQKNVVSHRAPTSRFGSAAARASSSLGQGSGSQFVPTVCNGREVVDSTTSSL
Structure (SMILES),IC50 [1],Emax [2],GTPγS - hmGluR2 anGT pIC50 [1],GTPγS - hmGluR2 anGT Emax [2]
Cc1cc(-c2cnn3c2C(=O)N(c2ccc(F)cc2)C[C@@H]3C)ccn1 [compound 28],2.4e-07 M,105%,,
Cc1cc(-c2cnn3c2C(=O)N(c2ccc(F)c(F)c2)C[C@@H]3C)ccn1 [compound 25],1.45e-07 M,103%,,
CCc1cc(-c2cnn3c2C(=O)N(c2ccc(Cl)c(Cl)c2)C[C@@H]3C)ccn1 [compound 134],3.24e-09 M,104%,,
"CC(=O)N1CCN(c2cc(-c3cnn4c3C(=O)N(c3ccc(C(F)(F)F)cc3)C[C@@H]4C)ccn2)CC1 [compound 106, (7S)-3-[2-(4-Acetylpiperazin-1-yl)-4-pyridyl]-7-methyl-5-[4-(trifluoromethyl)phenyl]-6,7-dihydropyrazolo[1,5-a]pyrazin-4-one]",6.03e-07 M,109%,,
"Cc1cc(-c2cnn3c2C(=O)N(c2ccc(C4CC4)cc2)C[C@@H]3C)ccn1 [compound 156, (7S)-5-(4-Cyclopropylphenyl)-7-methyl-3-(2-methyl-4-pyridyl)-6,7-dihydropyrazolo[1,5-a]pyrazin-4-one]",5.62e-08 M,106%,,
C[C@H]1CN(c2ccc(C(F)(F)F)cc2)C(=O)c2c(-c3ccnc(C4CC4)c3)cnn21 [compound 173],4.37e-09 M,106%,,
CCOc1cc(-c2cnn3c2C(=O)N(c2ccc(Cl)c(Cl)c2)C[C@@H]3C)ccn1 [compound 133],8.32e-09 M,104%,,
Cc1cc(-c2cnn3c2C(=O)N(c2ccc(C)c(F)c2)C[C@@H]3C)ccn1 [compound 76],2.82e-07 M,100%,,
Cc1cc(-c2cnn3c2C(=O)N(c2ccc(Br)cc2)C[C@@H]3C)ccn1 [compound 139],3.63e-08 M,106%,,
CNc1cc(-c2cnn3c2C(=O)N(c2ccc(Cl)c(Cl)c2)CC3CF)ccn1 (stereo not shown) [compound 93],1.82e-08 M,105%,,
Cc1cc(-c2cnn3c2C(=O)N(c2ccc(OC(C)C(F)(F)F)cc2)C[C@@H]3C)ccn1 (stereo partly shown) [compound 165],1.95e-08 M,102%,,
C[C@H]1CN(c2ccc(C(F)(F)F)c(Cl)c2)C(=O)c2c(-c3ccnc(N4CCC4)c3)cnn21 [compound 96],1.23e-09 M,108%,,
"Cc1cc(-c2cnn3c2C(=O)N(c2ccc(C(C)O)cc2)C[C@@H]3C)ccn1 (stereo partly drawn) [compound 149, (7S)-5-[4-(1-Hydroxyethyl)phenyl]-7-methyl-3-(2-methyl-4-pyridyl)-6,7-dihydropyrazolo[1,5-a]pyrazin-4-one]",> 5.01e-05 M,49%,,
CCC1CN(c2ccc(C(F)(F)F)cc2)C(=O)c2c(-c3ccnc(C)c3)cnn21 (stereo not shown) [compound 70],,106%,7.1,
Cc1cc(-c2cnn3c2C(=O)N(c2cc(F)cc(Cl)c2)C[C@@H]3C)ccn1 [compound 63],3.39e-08 M,105%,,
Cc1cc(-c2cnn3c2C(=O)N(c2ccc(C(F)(F)F)c(OCCF)c2)C[C@@H]3C)ccn1 [compound 48],7.76e-09 M,100%,,
Cc1cc(-c2cnn3c2C(=O)N(c2cccc(OC(F)(F)F)c2)C[C@@H]3C)ccn1 [compound 58],2.19e-08 M,107%,,
CCOc1ccc(N2C[C@H](C)n3ncc(-c4ccnc(C)c4)c3C2=O)cc1Cl [compound 17],4.79e-08 M,104%,,
Cc1cc(-c2cnn3c2C(=O)N(c2ccc(C(F)(F)F)c(CF)c2)C[C@@H]3C)ccn1 [compound 98],6.46e-09 M,111%,,
"COCC1CN(c2ccc(Cl)c(Cl)c2)C(=O)c2c(-c3ccnc(C)c3)cnn21 (single isomer, unassigned) [compound 118]",1.95e-08 M,105%,,
COc1cc(-c2cnn3c2C(=O)N(c2ccc(Cl)cc2)C[C@@H]3C)ccn1 [compound 89],4.17e-08 M,104%,,
C[C@H]1CN(c2ccc(C(F)(F)F)cc2)C(=O)c2c(-c3ccnc(N4CC(F)C4)c3)cnn21 [compound 94],5.5e-08 M,108%,,
CCCc1ccc(N2C[C@H](C)n3ncc(-c4ccnc(C)c4)c3C2=O)cc1 [compound 66],4.07e-08 M,107%,,
"COCC1CN(c2ccc(Cl)c(Cl)c2)C(=O)c2c(-c3ccnc(C)c3)cnn21 (single isomer, unassigned) [compound 119]",2.51e-06 M,,,100%
Cc1cc(-c2cnn3c2C(=O)N(c2ccc(C(F)(F)F)c(OC(C)C)c2)C[C@@H]3C)ccn1 [compound 154],2e-08 M,104%,,
CC(C)Oc1cc(-c2cnn3c2C(=O)N(c2ccc(Cl)c(Cl)c2)C[C@@H]3C)ccn1 [compound 137],1.82e-08 M,107%,,

# The remaining lines, values ahead:
IC50 [1],Emax [2],GTPγS - hmGluR2 anGT pIC50 [1],GTPγS - hmGluR2 anGT Emax [2],Structure (SMILES)
5.5e-09 M,111%,,,C[C@H]1CN(c2ccc(C(F)(F)F)c(Cl)c2)C(=O)c2c(-c3ccnc(CF)c3)cnn21 [compound 265]
8.71e-06 M,80%,,,Cc1cc(-c2cnn3c2C(=O)N(c2ccc(Cl)cc2Cl)CC3)ccn1 [compound 244]
1.78e-08 M,111%,,,COc1nc(N2C[C@H](C)n3ncc(-c4ccnc(C)c4)c3C2=O)ccc1Cl [compound 206]
7.41e-09 M,106%,,,"Cc1cc(-c2cnn3c2C(=O)N(c2ccc(C(F)(F)F)c(C)n2)C[C@@H]3C)ccn1 [compound 192, (7S)-7-Methyl-3-(2-methyl-4-pyridyl)-5-[6-methyl-5-(trifluoromethyl)-2-pyridyl]-6,7-dihydropyrazolo[1,5-a]pyrazin-4-one]"
3.55e-09 M,105%,,,Cc1cc(N2C[C@H](C)n3ncc(-c4ccnc(N5CCC5)c4)c3C2=O)ccc1C(F)(F)F [compound 260]
1.78e-08 M,105%,,,CCCNc1cc(-c2cnn3c2C(=O)N(c2ccc(C(F)(F)F)cc2)C[C@@H]3C)ccn1 [compound 259]
2.09e-07 M,105%,,,C[C@H]1CN(c2ccc(C(F)(F)F)cn2)C(=O)c2c(-c3ccncc3)cnn21 [compound 190]
6.76e-09 M,105%,,,Cc1cc(-c2cnn3c2C(=O)N(c2cc(Cl)c(Cl)cn2)C[C@@H]3C)ccn1 [compound 203]
3.72e-06 M,92%,,,Cc1cc(-c2cnn3c2C(=O)N(c2ccc(C(F)(F)F)cn2)CC3)ccn1 [compound 211]
2.75e-07 M,105%,,,"CNc1cc(-c2cnn3c2C(=O)N(c2ccc(Cl)c(Cl)c2)CC3CF)ccn1 (single isomer, unassigned) [compound 184]"
6.17e-09 M,109%,,,CC(C)Nc1cc(-c2cnn3c2C(=O)N(c2ccc(C(F)(F)F)c(Cl)c2)C[C@@H]3C)ccn1 [compound 262]
2.14e-06 M,103%,,,"Cc1cc(-c2cnn3c2C(=O)N(c2ccc(C(F)(F)F)cc2)CC3C(F)(F)F)ccn1 (stereo not shown) [compound 238, 3-(2-Methyl-4-pyridyl)-7-(trifluoromethyl)-5-[4-(trifluoromethyl)phenyl]-6,7-dihydropyrazolo[1,5-a]pyrazin-4-one]"
1.91e-08 M,103%,,,Cc1cc(-c2cnn3c2C(=O)N(c2cc(C)c(C(F)(F)F)cn2)C[C@@H]3C)ccn1 [compound 193]
2.24e-08 M,116%,,,CNc1cc(-c2cnn3c2C(=O)N(c2ccc(C(F)(F)F)cc2)C[C@@H]3C)cc(F)n1 [compound 243]
3.98e-09 M,120%,,,COc1nc(N2C[C@H](C)n3ncc(-c4ccnc(N(C)C)c4)c3C2=O)ccc1C(F)(F)F [compound 250]
